In paper PMC3320797 (Chemical biology & drug design, 2010):
“Also recorded” adds a separate entry of the source. Where two headings read alike, the source gives them in different places.

Assays:
HIV-1 RT DNA polymerase [1] = target: T1, HIV-1 RT DNA polymerase (Human immunodeficiency virus type 1 group M subtype B, UniProt P04585); assay: RT RNA-dependent DNA polymerase activity assay; format: biochemical; conditions: read-out: Inhibition of RT DNA polymerase activity (IC50)
p15-EC RNH fragment [2] = target: T2, p15-EC RNH fragment (Human immunodeficiency virus type 1 group M subtype B, UniProt P04585, DELINS1094-1102[…]); assay: RNH activity of p15-EC RNH domain fragment, rapid fluorescence assay; format: biochemical, HIV-1 / Escherichia coli chimera; conditions: for IC50: read-out: Inhibition of the p15-EC RNH fragment (IC50), 2 mM Mn2+
Aqueous solubility = format: physicochemical; conditions: aqueous solution
[3] = target: p15-EC RNH domain fragment (Human immunodeficiency virus type 1 group M subtype B, UniProt P04585, DELINS1094-1102[…]); assay: NMR 1H-15N HSQC chemical shift titration, dissociation constant; format: binding, HIV-1 / Escherichia coli chimera; conditions: read-out: Inhibitor dissociation constant, KD
HIV-1 RT DNA polymerase [4] = target: T1, HIV-1 RT DNA polymerase; conditions: read-out: Inhibition of RT DNA polymerase activity (IC50); ref [20]; cited from earlier work
p15-EC RNH fragment [5] = target: T2, p15-EC RNH fragment; conditions: read-out: Inhibition of the p15-EC RNH fragment (IC50); ref [20]; cited from earlier work
HIV-1 = conditions: ref [21], [22]; cited from earlier work

## O=C(O)c1ccc(-c2cccc(/C=N/NC(=O)c3ccc(O)c(O)c3)c2)cc1 [BHMP03]
HIV-1 RT DNA polymerase [1]
  IC50: > 50000 nM
p15-EC RNH fragment [2]; IC50 of BHMP03 versus BHMP07
  Ratio of p15-EC RNH IC50 relative to BHMP07: more than 50 times
p15-EC RNH fragment [2]
  IC50: > 50000 nM
Aqueous solubility
  Aqueous solubility relative to DHBNH: more soluble in aqueous solution than the naphthyl-based DHBNH

## O=C(O)c1ccc(-c2cccc(/C=N/NC(=O)c3cc(O)c(O)c(O)c3)c2)cc1 [BHMP07]
HIV-1 RT DNA polymerase [1]
  IC50: 300 ± 200 nM
p15-EC RNH fragment [2]
  IC50: 800 ± 60 nM
[3]; residue A76 (502), + 20 mM Mg2+
  Kd: 311 ± 41.5 µM
[3]; residue A76 (502), no Mg2+
  Kd: 192 ± 28.9 µM
[3]; residue I79 (505), + 20 mM Mg2+
  Kd: 372 ± 60.2 µM
[3]; residue I79 (505), no Mg2+
  Kd: 212 ± 20.1 µM
[3]; residue I114 (526), + 20 mM Mg2+
  Kd: 321 ± 26.2 µM
[3]; residue I114 (526), no Mg2+
  Kd: 217 ± 38.4 µM
[3]; residue K93, + 20 mM Mg2+
  Kd: 454 ± 151 µM
[3]; residue K93, no Mg2+
  Kd: 194 ± 18.3 µM
[3]; residue Q74 (500), + 20 mM Mg2+
  Kd: 246 ± 72.8 µM
[3]; residue V124 (536), no Mg2+
  Kd: 242 ± 18.2 µM
[3]; residue Y75 (501), + 20 mM Mg2+
  Kd: 262 ± 135 µM
Aqueous solubility
  Aqueous solubility relative to DHBNH: higher aqueous solubility than DHBNH; also recorded: more soluble in aqueous solution than the naphthyl-based DHBNH
Aqueous solubility; inhibitor up to 0.8 mM, overnight incubation
  Solubility at the levels used in the NMR studies: not likely completely soluble in aqueous solution

## COc1ccc2ccccc2c1/C=N/NC(=O)c1ccc(O)c(O)c1 [DHBNH, dihydroxy benzoyl naphthyl hydrazone]
HIV-1 RT DNA polymerase [4]
  IC50: > 25 µM
p15-EC RNH fragment [5]
  IC50: 18.5 ± 3.4 µM

## CC(C)c1ccc(O)c(=O)c(O)c1 [β-thujaplicinol]
HIV-1
  Antiviral activity: neither of these compounds has antiviral activity
